Test results taken from US20230365589A1, “NOVEL AMINE DERIVATIVES” (Sumitomo Pharma Co., Ltd., priority 2020, published 2023).
pIC50: −log10 of the molar value. Where two headings read alike, the source gives them in different places.

Key:
Format in all cases: biochemical
DYRK3 = molecular target: T1, DYRK3 (Homo sapiens, UniProt O43781); test: Inhibition test on activity of DYRK family, mobility shift assay (MSA): DYRK3
T1 construct: purchased Carna Biosciences, Inc. 04-133
T1 sequence (O43781 1-568 isoform O43781-2): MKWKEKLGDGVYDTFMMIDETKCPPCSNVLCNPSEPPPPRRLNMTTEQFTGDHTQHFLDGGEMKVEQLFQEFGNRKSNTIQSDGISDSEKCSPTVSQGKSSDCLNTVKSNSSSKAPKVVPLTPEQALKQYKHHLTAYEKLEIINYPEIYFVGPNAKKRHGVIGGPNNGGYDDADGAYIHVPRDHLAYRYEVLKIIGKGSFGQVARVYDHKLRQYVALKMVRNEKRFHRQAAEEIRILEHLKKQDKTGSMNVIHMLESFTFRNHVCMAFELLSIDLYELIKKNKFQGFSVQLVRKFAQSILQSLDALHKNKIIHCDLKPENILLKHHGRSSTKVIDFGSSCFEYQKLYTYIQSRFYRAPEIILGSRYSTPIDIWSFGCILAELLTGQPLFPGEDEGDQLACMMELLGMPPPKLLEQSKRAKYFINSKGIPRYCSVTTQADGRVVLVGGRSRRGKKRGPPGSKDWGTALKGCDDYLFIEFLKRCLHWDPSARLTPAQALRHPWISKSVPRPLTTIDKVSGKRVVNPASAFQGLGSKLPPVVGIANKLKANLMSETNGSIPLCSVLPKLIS
Procedure, shortened: (§1)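 Reactions ran 1 h at room temperature in HEPES buffer pH 7.5 with FITC-DYRKtide as substrate. ATP in the substrate mix was 100 µM for DYRK1A, 200 µM for DYRK1B, 40 µM for DYRK2 and 20 µM for DYRK3. Phosphorylated and unphosphorylated peptide were separated on a LabChip, and IC50 was regressed on log dose.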

DYRK2 = molecular target: T2, DYRK2 (Homo sapiens, UniProt Q92630); test: Inhibition test on activity of DYRK family, mobility shift assay (MSA): DYRK2
T2 construct: purchased Carna Biosciences, Inc. 04-132
T2 sequence (Q92630 74-601 limits assumed): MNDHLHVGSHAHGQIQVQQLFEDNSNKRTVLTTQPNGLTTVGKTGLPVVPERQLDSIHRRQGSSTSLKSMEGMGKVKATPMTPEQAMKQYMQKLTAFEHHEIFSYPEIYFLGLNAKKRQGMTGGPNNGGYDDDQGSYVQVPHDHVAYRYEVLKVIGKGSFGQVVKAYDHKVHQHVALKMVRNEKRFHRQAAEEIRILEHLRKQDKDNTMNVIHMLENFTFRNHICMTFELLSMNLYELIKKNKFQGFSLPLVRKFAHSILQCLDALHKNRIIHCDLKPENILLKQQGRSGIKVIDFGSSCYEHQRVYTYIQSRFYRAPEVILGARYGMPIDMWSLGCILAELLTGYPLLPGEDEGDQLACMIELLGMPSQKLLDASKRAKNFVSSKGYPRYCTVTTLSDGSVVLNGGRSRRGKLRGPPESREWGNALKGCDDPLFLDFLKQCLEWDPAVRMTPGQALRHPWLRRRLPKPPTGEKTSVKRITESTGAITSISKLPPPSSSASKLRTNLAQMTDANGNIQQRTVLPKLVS
Procedure, shortened: as §1

DYRK1B = molecular target: T3, DYRK1B (Homo sapiens, UniProt Q9Y463); test: Inhibition test on activity of DYRK family, mobility shift assay (MSA): DYRK1B
T3 construct: purchased Carna Biosciences, Inc. 04-131
Description: [Inhibition Test on Activity of DYRK Family (DYRK1A, DYRK1B, DYRK2, and DYRK3)]
The kinase activity was measured by mobility shift assay (MSA) method using QuickScout Screening Assist™ MSA (commercially available kit manufactured by Carna Biosciences, Inc.). The substrate of the kinase reaction used was an FITC-labeled DYRKtide peptide included in the kit. An assay buffer [20 mM HEPES, 0.01% Triton X-100™, 2 mM dithiothreitol, pH 7.5]was used to create a substrate mixture solution with a substrate (4 μM), MgCl2(20 mM), and ATP (DYRK1A: 100 μM; DYRK1B: 200 μM; DYRK2: 40 μM; and DYRK3: 20 μM). In addition, kinases (DYRK1A: manufactured by Carna Biosciences, Inc., Cat. No. 04-130; DYRK1B: manufactured by Carna Biosciences, Inc., Cat. No. 04-131; DYRK2; manufactured by Carna Biosciences, Inc., Cat. No. 04-132; and DYRK3; manufactured by Carna Biosciences, Inc., Cat. No. 04-133) were diluted with the assay buffer to prepare enzyme solutions (DYRK1A: 0.2 ng/μL; DYRK1B: 0.08 ng/μL; DYRK2: 0.04 ng/μL; and DYRK3: 0.25 ng/μL). The 10 mM solution of the test compound in DMSO was further diluted with DMSO to 10 levels of the concentration (0.00003 mM, 0.0001 mM, 0.0003 mM, 0.001 mM, 0.003 mM, 0.01 mM, 0.03 mM, 0.1 mM, 0.3 mM, and 1 mM), each of which was subjected to 25-fold dilution with the assay buffer to obtain a drug solution (4% DMSO solution). 5 μL of the drug solution or a control solution (4% DMSO-assay buffer), 5 μL of the substrate mixture solution, and 10 μL of the enzyme solution were mixed in the wells of a polypropylene 384-well plate and allowed to react at room temperature for 1 hour, and then the reaction was quenched by adding 60 μL of the termination buffer included in the kit. Subsequently, the quantities of the substrates (S) and the phosphorylated substrate (P) in the reaction solution were measured using LabChip EZ Reader II system (manufactured by Caliper Life Sciences) according to the protocol of the assay kit.
The heights of the peaks of the “substrate” and the “phosphorylated substrate” were expressed as S and P, respectively, and a blank containing the assay buffer instead of the enzyme solution was also measured.
The inhibition rate (%) of the test compound was calculated according to the following equation:
Inhibition rate (%)=(1−(C−A)/(B−A))×100 • wherein, A, B, and C represent P/(P+S) of the blank well, P/(P+S) of the control solution well, and P/(P+S) of the compound-containing well, respectively.
The IC50 value was calculated via a regression analysis of the inhibition rate and the test compound concentration (logarithmic value).
The inhibiting activities of representative compounds of the present invention are shown against DYRK1A, DYRK1B, DYRK2, and DYRK3 in Tables.

DYRK1A = molecular target: T4, DYRK1A (Homo sapiens, UniProt Q13627); test: Inhibition test on activity of DYRK family, mobility shift assay (MSA): DYRK1A
T4 construct: purchased Carna Biosciences, Inc. 04-130
Procedure, shortened: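 IC50 derived by regressing inhibition rate on log compound concentration, using P/(P+S) peak ratios from electrophoretic separation. DYRK1A enzyme solution 0.2 ng/μL, substrate mix with 4 μM FITC-DYRKtide and 100 μM ATP, pH 7.5 HEPES; reaction run 1 h at room temperature.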

[1] = MSA, FITC-labeled DYRKtide peptide, ATP 20 μM, read-out: Inhibitory activity DYRK 3 (IC50 class)
[2] = MSA, FITC-labeled DYRKtide peptide, ATP 40 μM, read-out: Inhibitory activity DYRK 2 (IC50 class)
[3] = MSA, FITC-labeled DYRKtide peptide, ATP 200 μM, read-out: Inhibitory activity DYRK 1B (IC50 class)
[4] = MSA, FITC-labeled DYRKtide peptide, ATP 100 μM, read-out: Inhibitory activity DYRK 1A (IC50 class)
[5] = read-out: Inhibitory activity DYRK 3
[6] = read-out: Inhibitory activity DYRK 2
[7] = read-out: Inhibitory activity DYRK 1B
[8] = read-out: Inhibitory activity DYRK 1A

T3 sequence (Q9Y463 whole entry): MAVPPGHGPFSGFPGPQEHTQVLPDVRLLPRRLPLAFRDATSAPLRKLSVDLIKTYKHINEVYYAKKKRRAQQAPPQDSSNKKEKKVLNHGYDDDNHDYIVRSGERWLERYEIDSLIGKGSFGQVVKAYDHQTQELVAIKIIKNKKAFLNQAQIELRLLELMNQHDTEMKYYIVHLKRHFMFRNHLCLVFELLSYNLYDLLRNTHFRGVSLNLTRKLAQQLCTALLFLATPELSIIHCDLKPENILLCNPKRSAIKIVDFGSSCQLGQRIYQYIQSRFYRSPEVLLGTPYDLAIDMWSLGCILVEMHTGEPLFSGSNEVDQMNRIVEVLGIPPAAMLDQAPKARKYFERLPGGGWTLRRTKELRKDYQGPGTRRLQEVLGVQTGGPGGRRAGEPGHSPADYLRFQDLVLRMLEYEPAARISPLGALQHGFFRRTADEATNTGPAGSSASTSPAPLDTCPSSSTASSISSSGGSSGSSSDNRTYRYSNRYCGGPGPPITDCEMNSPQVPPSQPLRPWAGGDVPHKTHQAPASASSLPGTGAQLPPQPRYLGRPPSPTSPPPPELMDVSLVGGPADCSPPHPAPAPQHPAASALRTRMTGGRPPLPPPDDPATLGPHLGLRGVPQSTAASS

`CC[C@H]1C[C@@H]2[C@H](CO1)NC(=O)N2c1nc2c3c(ccc2s1)OCC3` [Example 42, (3aR,6S,7aR)-1-(7,8-dihydrofuro[3,2-e][1,3]benzothiazol-2-yl)-6-ethylhexahydropyrano[3,4-d]imidazol-2(3H)-one] was tested, and the pIC50 (DYRK3; [1]) was 6.00 to 7.00, the pIC50 (DYRK2; [2]) was 6.00 to 7.00 and the pIC50 (DYRK1B; [3]) was over 8.00. It also gave a pIC50 (DYRK1A; [4]) of over 8.00.
`CC[C@H]1C[C@@H]2[C@H](CO1)NC(=O)N2c1nc2c3c(ccc2s1)OCCO3` [Example 43, (3aR,6S,7aR)-1-(7,8-dihydro[1,4]dioxino[2,3-e][1,3]benzothiazol-2-yl)-6-ethylhexahydropyrano[3,4-d]imidazol-2(3H)-one] showed a pIC50 (DYRK3; [1]) of 6.00 to 7.00, a pIC50 (DYRK2; [2]) of 6.00 to 7.00 and a pIC50 (DYRK1B; [3]) of over 8.00. It also gave a pIC50 (DYRK1A; [4]) of over 8.00.
`O=C1N[C@H]2COC[C@H]2N1c1nc2c3c(ccc2s1)OCC3` [Example 119] showed a pIC50 (DYRK3; [5]) of 7.00 to 8.00, a pIC50 (DYRK2; [6]) of 7.00 to 8.00 and a pIC50 (DYRK1B; [7]) of 7.00 to 8.00. It also gave a pIC50 (DYRK1A; [8]) of 7.00 to 8.00.
Compound `O=C1N[C@H]2COCC[C@H]2N1c1nc2c3c(ccc2s1)OCC3` [Example 122, (3aR,7aR)-1-(7,8-dihydrofuro[3,2-e][1,3]benzothiazol-2-yl)hexahydropyrano[3,4-d]imidazol-2(3H)-one] has a pIC50 (DYRK3; [5]) of 6.00 to 7.00, a pIC50 (DYRK2; [6]) of 6.00 to 7.00 and a pIC50 (DYRK1B; [7]) of over 8.00. The pIC50 (DYRK1A; [8]) was over 8.00.
Compound `CC[C@H]1C[C@@H]2[C@H](CO1)NC(=O)N2c1nc2c3c(ccc2s1)OCO3` [Example 138, (3aR,6S,7aR)-1-(2H-[1,3]dioxolo[4,5-e][1,3]benzothiazol-7-yl)-6-ethylhexahydropyrano[3,4-d]imidazol-2(3H)-one] has a pIC50 (DYRK3; [1]) of 6.00 to 7.00, a pIC50 (DYRK2; [2]) of 6.00 to 7.00 and a pIC50 (DYRK1B; [3]) of over 8.00. The pIC50 (DYRK1A; [4]) was over 8.00.
Compound `C[C@H]1C[C@@H]2[C@H](CO1)NC(=O)N2c1nc2c3c(ccc2s1)OCO3` [Example 139, (3aR,6S,7aR)-1-(2H-[1,3]dioxolo[4,5-e][1,3]benzothiazol-7-yl]-6-methylhexahydropyrano[3,4-d]imidazol-2(3H)-one] has a pIC50 (DYRK3; [1]) of 7.00 to 8.00, a pIC50 (DYRK2; [2]) of 6.00 to 7.00 and a pIC50 (DYRK1B; [3]) of over 8.00. The pIC50 (DYRK1A; [4]) was over 8.00.
For `O=C1N[C@H]2CO[C@@H](CF)C[C@H]2N1c1nc2c3c(ccc2s1)OCO3` [Example 140, (3aR,6R,7aR)-1-(2H-[1,3]dioxolo[4,5-e][1,3]benzothiazol-7-yl]-6-(fluoromethyl)hexahydropyrano[3,4-d]imidazol-2(3H)-one], the pIC50 (DYRK3; [1]) was 7.00 to 8.00, the pIC50 (DYRK2; [2]) was 7.00 to 8.00 and the pIC50 (DYRK1B; [3]) was over 8.00. It also gave a pIC50 (DYRK1A; [4]) of over 8.00.
With `O=C1N[C@@H]2[C@@H](CO)OC[C@@H]2N1c1nc2c3c(ccc2s1)OCC3` [Example 158] the pIC50 (DYRK3; [1]) was at most 6.00, the pIC50 (DYRK2; [2]) was at most 6.00 and the pIC50 (DYRK1B; [3]) was 6.00 to 7.00. For the same compound, the pIC50 (DYRK1A; [4]) was 6.00 to 7.00.
`O=C1N[C@H]2CO[C@H](CF)[C@H]2N1c1nc2c3c(ccc2s1)OCC3` [Example 159, (3aR,6S,6aS)-1-(7,8-dihydrofuro[3,2-e][1,3]benzothiazol-2-yl)-6-(fluoromethyl)tetrahydro-1H-furo[3,4-d]imidazol-2(3H)-one] showed a pIC50 (DYRK3; [1]) of 7.00 to 8.00, a pIC50 (DYRK2; [2]) of 7.00 to 8.00 and a pIC50 (DYRK1B; [3]) of 7.00 to 8.00. The pIC50 (DYRK1A; [4]) was over 8.00.
In the case of `C[C@@H]1C[C@@H]2[C@H](CO1)NC(=O)N2c1nc2c3c(ccc2s1)OCC3` [Example 160], the pIC50 (DYRK3; [1]) was at most 6.00, the pIC50 (DYRK2; [2]) was at most 6.00 and the pIC50 (DYRK1B; [3]) was 6.00 to 7.00. It also gave a pIC50 (DYRK1A; [4]) of 6.00 to 7.00.
`C[C@H]1OC[C@@H]2NC(=O)N(c3nc4c5c(ccc4s3)OCC5)[C@@H]21` [Example 161, (3aR,6R,6aS)-1-(7,8-Dihydrofuro[3,2-e][1,3]benzothiazol-2-yl)-6-methyltetrahydro-1H-furo[3,4-d]imidazol-2(3H)-one] was tested, and the pIC50 (DYRK3; [1]) was 6.00 to 7.00, the pIC50 (DYRK2; [2]) was 7.00 to 8.00 and the pIC50 (DYRK1B; [3]) was 7.00 to 8.00. For the same compound, the pIC50 (DYRK1A; [4]) was 7.00 to 8.00.
